Assay results published in patent publication US4791139A, “Diphenyl ether derivatives and their use as insecticides” (Imperial Chemical Industries PLC, priority 1986, dated 1988).

Assays:
Format in all cases: in vivo
[1] = tested on: Heliothis virescens (tobacco budworm - larvae); test: Residual test, tobacco budworm - larvae (HV), Cotton leaf; conditions: 72 h, read-out: HV grading of mortality
In short: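 Products applied as acetone solutions diluted in water with 0.1% wetting agent, at 100–500 ppm; pests on host plant or food, with pests and/or medium treated. Mortality or knockdown scored 1–7 days after treatment and graded A (80–100%), B (50–79%) or C (<50%).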

[2] = tested on: Blattella germanica (cockroach nymphs); test: Residual test, cockroach nymphs (BG), Plastic pot; conditions: 72 h, 3 days, read-out: BG grading of mortality
In short: (§1)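 Each pest was kept on its food plant or foodstuff and exposed, directly or via the medium, to 100 to 500 ppm Product in water containing 0.1% by weight wetting agent. Kill was recorded over one to seven days.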

[3] = tested on: Diabrotica balteata (rootworm larvae); test: Residual test, rootworm larvae (DB), Filter paper/maize seed; conditions: 72 h, 3 days, read-out: DB grading of mortality
In short: as §1

[4] = tested on: Musca domestica (houseflies - adults); test: Knockdown test, houseflies - adults (MD/KD), Cotton wool/sugar; conditions: 4 hours, read-out: MD/KD grading of knockdown
In short: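 Product was dissolved in acetone and diluted with water containing 0.1% wetting agent to 100–500 ppm. The flies and/or their food medium were treated with the preparation. Mortality was scored 1–7 days after treatment, with an additional knockdown assessment for houseflies.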

[5] = tested on: Myzus persicae (aphids); test: Contact test, aphids (MP), Chinese Cabbage leaf; conditions: 72 h, 3 days, read-out: MP grading of mortality
In short: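 Aphids on a host plant and/or the plant itself were treated with 100–500 ppm of product, applied from acetone diluted in water containing 0.1% SYNPERONIC NX wetting agent. Mortality was scored usually one to seven days after treatment.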

[6] = tested on: Tetranychus urticae (spider mites - ova); test: Contact test, spider mites - ova (TUe), French bean leaf; conditions: 144 h, 6 days, read-out: TUE grading of mortality
In short: as §1

[7] = tested on: Meloidogyne incognita (Tomato root knot eelworm - larvae); test: Residual test, Tomato root knot eelworm - larvae (MI), Semi in-vitro; conditions: 168 h, application rate is half that recorded, 7 days, read-out: MI grading of mortality; for mortality at 125 µg/mL: rate 250 ppm; for mortality at 250 µg/mL: rate column 500 ppm
[8] = tested on: Musca domestica (houseflies - adults); test: Contact test, houseflies - adults (MD), Cotton wool/sugar; conditions: 24 h, 1 day, read-out: MD grading of mortality
In short: as §1

[9] = tested on: Nilaparvata lugens (brown plant hopper - nymphs); test: Contact test, brown plant hopper - nymphs (NL), Rice plant; conditions: 72 h, 3 days, read-out: NL grading of mortality
In short: as §1

[10] = tested on: Chilo partellus (Maize stemborer - larvae); test: Residual test, Maize stemborer - larvae (CP), Oilseed rape; conditions: 72 h, 3 days, read-out: CP grading of mortality
Description: The activity of the Product was determined using a variety of insect pests. The Product was used in the form of liquid preparations containing from 100 to 500 parts per million (ppm) by weight of the Product. The preparations were made by dissolving the Product in acetone and diluting the solutions with water containing 0.1% by weight of a wetting agent sold under the trade name "SYNPERONIC" NX until the liquid preparations contained the required concentration of the Product. "SYNPERONIC" is a Registered Trade Mark.
The test procedure adopted with regard to each pest was basically the same and comprised supporting a number of the pests on a medium which was usually a host plant or a foodstuff on which the pests feed, and treating either or both the pests and the medium with the preparations. The mortality of the pests was then assessed at periods usually varying from one to seven days after the treatment.
The results of the tests are given in Table III for each of the Products, at the rate in parts per million given in the second column as a grading of mortality designated as A, B or C wherein A indicates 80-100% mortality or knockdown (70-100% for Meloidogyne incognita), B indicates 50-79% mortality knockdown or knockdown (50-69% for Meloidogyne incognita) and C indicates less than 50% mortality or knockdown.
In Table III the pest organism used is designated by a letter code and the pests species, the support medium or food, and the type and duration of test is given in Table II.
(Maize stemborer - larvae)

[11] = tested on: Tetranychus urticae (spider mites - adult); test: Contact test, spider mites - adult (TUa), French bean leaf; conditions: 72 h, 3 days, read-out: TUA grading of mortality
In short: as §1

Compound | mortality at 250 ppm [1] | mortality at 250 ppm [2] | mortality at 250 ppm [3] | pest or weed control at 250 ppm [4] | mortality at 250 ppm [5] | mortality at 250 ppm [6] | mortality at 125 µg/mL [7] | mortality at 250 ppm [8] | mortality at 250 ppm [9] | mortality at 250 ppm [10] | mortality at 250 ppm [11] | other results
CCOc1ccc(C(C/C=C\c2cccc(Oc3ccccc3)c2)C(F)(F)F)cc1 (stereo not drawn) [Compound 35, 1,1,1-trifluoro-2-(4-ethoxyphenyl)-5-(3-phenoxyphenyl)pent-4-ene] | 80 to 100% | 80 to 100% | 80 to 100% | 80 to 100% | 80 to 100% | < 50% | < 50% | 80 to 100% | 80 to 100% | 80 to 100% | 80 to 100% | –
CC(C)(C)c1ccc(C(=CCCc2cccc(Oc3ccccc3)c2)C(F)(F)F)cc1 [Compound 6, 2-[4-(2-methylprop-2-yl)phenyl]-5-(3-phenoxyphenyl)-1,1,1-trifluoropent-2-ene] | < 50% | 80 to 100% | < 50% | < 50% | < 50% | < 50% | 70 to 100% | < 50% | < 50% | 80 to 100% | < 50% | –
CC(C)(C)c1ccc(C(CCCc2cccc(Oc3ccccc3)c2)C(F)(F)F)cc1 (racemic) [Compound 8, 1,1,1-Trifluoro-2-[4-(2-methylprop-2-yl)phenyl]-5-(3-phenoxyphenyl)pentane] | 80 to 100% | 80 to 100% | 80 to 100% | < 50% | < 50% | < 50% | 70 to 100% | < 50% | < 50% | 80 to 100% | < 50% | –
CCOc1ccc(C(=CCCc2cccc(Oc3ccccc3)c2)C(F)(F)C(F)(F)F)cc1 [Compound 10, 3-(4-ethoxyphenyl)-1,1,1,2,2-pentafluoro-6-(3-phenoxyphenyl)hex-3-ene] | < 50% | 50 to 79% | < 50% | < 50% | < 50% | < 50% | < 50% | < 50% | < 50% | < 50% | < 50% | –
CCOc1ccc(/C(=C\C=C\c2ccc(F)c(Oc3ccccc3)c2)C(F)(F)F)cc1 [Compound 36, 1,1,1-trifluoro-2-(4-ethoxyphenyl)-5-(4-fluoro-3-phenoxyphenyl)penta-2,4-diene] | 80 to 100% | 80 to 100% | 80 to 100% | 80 to 100% | 80 to 100% | < 50% | 50 to 69% | 80 to 100% | 80 to 100% | 80 to 100% | < 50% | –
FC(F)(F)Oc1ccc(C(=CCCc2cccc(Oc3ccccc3)c2)C(F)(F)F)cc1 [Compound 7, 5-(3-phenoxyphenyl)-2-(4-trifluoromethoxyphenyl)-1,1,1-trifluoropent-2-ene] | 80 to 100% | 80 to 100% | 80 to 100% | < 50% | 80 to 100% | 80 to 100% | < 50% | 50 to 79% | 80 to 100% | 80 to 100% | 80 to 100% | –
FC(F)(F)C(=CCCc1cccc(Oc2ccccc2)c1)c1ccc(C(F)(F)F)cc1 [Compound 15, 5-(3-phenoxyphenyl)-1,1,1-trifluoro-2-(4-trifluoromethylphenyl)pent-2-ene] | 80 to 100% | 80 to 100% | < 50% | < 50% | < 50% | < 50% | < 50% | < 50% | < 50% | 80 to 100% | 50 to 79% | –
FC(F)(F)Oc1ccc(C(CCCc2cccc(Oc3ccccc3)c2)C(F)(F)F)cc1 (racemic) [Compound 9, 1,1,1-Trifluoro-2-(4-trifluoromethoxyphenyl)-5-(3-phenoxyphenyl)pentane] | 80 to 100% | 80 to 100% | 80 to 100% | 80 to 100% | 80 to 100% | 80 to 100% | < 50% | 80 to 100% | 80 to 100% | 80 to 100% | 80 to 100% | –
CCOc1ccc(C(CCCc2ccc(F)c(Oc3ccccc3)c2)C(F)(F)F)cc1 (racemic) [Compound 5, 1,1,1-Trifluoro-2-(4-ethoxyphenyl)-5-(4-fluoro-3-phenoxyphenyl)pentane] | 80 to 100% | 80 to 100% | 80 to 100% | 80 to 100% | 80 to 100% | 50 to 79% | < 50% | 80 to 100% | 80 to 100% | 80 to 100% | 80 to 100% | –
CCOc1ccc(/C(=C\CCc2cccc(Oc3ccccc3)c2)C(F)(F)F)cc1 [Compound 3, E-1,1,1-trifluoro-2-(4-ethoxyphenyl)-5-(3-phenoxyphenyl)pent-2-ene] | – | – | – | – | – | – | – | – | – | – | – | mortality at 500 ppm [1]: 80 to 100%; mortality at 500 ppm [2]: 80 to 100%; mortality at 500 ppm [3]: 80 to 100%; pest or weed control at 500 ppm [4]: 80 to 100%; mortality at 500 ppm [5]: 80 to 100%; mortality at 500 ppm [6]: < 50%; mortality at 250 µg/mL [7]: < 50%; mortality at 500 ppm [8]: 80 to 100%; mortality at 500 ppm [9]: < 50%; mortality at 500 ppm [10]: 80 to 100%; mortality at 500 ppm [11]: 50 to 79%
CCOc1ccc(C(CC=Cc2ccc(F)c(Oc3ccccc3)c2)C(F)(F)F)cc1 (stereo not drawn) [Compound 32, 1,1,1-Trifluoro-2-(4-ethoxyphenyl)-5-(4-fluoro-3-phenoxyphenyl)pent-4-ene] | 80 to 100% | 80 to 100% | 80 to 100% | 80 to 100% | 80 to 100% | < 50% | < 50% | 80 to 100% | 80 to 100% | 80 to 100% | 50 to 79% | –
CCOc1ccc(/C(=C\C=Cc2ccc(F)c(Oc3ccccc3)c2)C(F)(F)F)cc1 [Compound 12, 1,1,1-trifluoro-2-(4-ethoxyphenyl)-5-(4-fluoro-3-phenoxyphenyl)penta-2,4-diene] | – | – | – | – | – | – | – | – | – | – | – | mortality at 500 ppm [1]: 80 to 100%; mortality at 500 ppm [2]: 80 to 100%; mortality at 500 ppm [3]: 80 to 100%; pest or weed control at 500 ppm [4]: 80 to 100%; mortality at 500 ppm [5]: < 50%; mortality at 500 ppm [6]: < 50%; mortality at 250 µg/mL [7]: 70 to 100%; mortality at 500 ppm [8]: 80 to 100%; mortality at 500 ppm [9]: 80 to 100%; mortality at 500 ppm [10]: 80 to 100%; mortality at 500 ppm [11]: < 50%
